Data taken from ChEMBL document CHEMBL1201862, “PubChem BioAssay data set” (2004).
Each block holds one compound with its values, some of them ahead of it. Activity calls are given as the source filed them.

Assays:
[1] = molecular target: T1, G-protein coupled receptor 35 (Homo sapiens, UniProt Q9HC97); test: SAR analysis of Agonists of the GPR35 Receptor using an Image-Based Assay - Set 4. [Related pubchem assays (depositor defined):AID2013, AID2026]; format: functional
Cannabinoid receptor 1 [2] = molecular target: T2, Cannabinoid receptor 1 (Homo sapiens, UniProt P21554); test: SAR analysis of agonists of the Cannabinoid Receptor 1 using an Image-Based Assay - Set 4. [Related pubchem assays (depositor defined):AID2013, AID2026]; format: functional
[3] = molecular target: T1, G-protein coupled receptor 35; test: SAR analysis of Antagonists of the GPR35 Receptor using an Image-Based Assay - Set 6. [Related pubchem assays (depositor defined):AID2013, AID2026]; format: functional
Cannabinoid receptor 1 [4] = molecular target: T2, Cannabinoid receptor 1; test: SAR analysis of antagonists of the Cannabinoid Receptor 1 using an Image-Based Assay - Set 4. [Related pubchem assays (depositor defined):AID2013, AID2026]; format: functional
[5] = molecular target: G-protein coupled receptor 55 (Homo sapiens, UniProt Q9Y2T6); test: SAR Analysis of Selective Antagonists of GPR55 using an Image-Based Assay - Set 4. [Related pubchem assays (depositor defined):AID2013, AID2026]; format: functional;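 also: antagonism of response to 5 µM lysophosphatidylinositol agonist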
Cannabinoid receptor 2 [6] = molecular target: T3, Cannabinoid receptor 2 (Homo sapiens, UniProt P34972); test: SAR analysis of antagonists of the Cannabinoid Receptor 2 using an Image-Based Assay - Set 3. [Related pubchem assays (depositor defined):AID2013, AID2026]; format: functional
Cannabinoid receptor 2 [7] = molecular target: T3, Cannabinoid receptor 2; test: SAR analysis of agonists of the Cannabinoid Receptor 2 using an Image-Based Assay - Set 3. [Related pubchem assays (depositor defined):AID2013, AID2026]; format: functional
[8] = molecular target: T4, Tyrosine-protein phosphatase non-receptor type 7 (Homo sapiens, UniProt P35236); format: functional
T4 sequence (P35236 whole entry): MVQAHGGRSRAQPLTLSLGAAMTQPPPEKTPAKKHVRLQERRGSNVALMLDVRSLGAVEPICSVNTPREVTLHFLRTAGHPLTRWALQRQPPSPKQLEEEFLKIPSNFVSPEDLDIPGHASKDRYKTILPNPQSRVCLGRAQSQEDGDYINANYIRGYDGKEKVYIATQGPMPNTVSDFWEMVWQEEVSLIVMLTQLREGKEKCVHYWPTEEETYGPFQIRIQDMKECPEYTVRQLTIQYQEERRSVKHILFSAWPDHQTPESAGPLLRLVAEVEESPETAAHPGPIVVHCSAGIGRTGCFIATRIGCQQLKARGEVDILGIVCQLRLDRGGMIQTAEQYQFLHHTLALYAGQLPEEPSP

[9] = molecular target: T5, Voltage-gated N-type calcium channel alpha-1B subunit/Amyloid beta A4 precursor protein-binding family A member 1 (Homo sapiens, UniProt Q00975+Q02410); format: protein assay
[10] = molecular target: T5, Voltage-gated N-type calcium channel alpha-1B subunit/Amyloid beta A4 precursor protein-binding family A member 1; format: protein assay; remark: listed apart in the source
[11] = molecular target: T6, Tyrosine-protein phosphatase non-receptor type 22 (Homo sapiens, UniProt Q9Y2R2); format: functional
T6 sequence (Q9Y2R2 whole entry): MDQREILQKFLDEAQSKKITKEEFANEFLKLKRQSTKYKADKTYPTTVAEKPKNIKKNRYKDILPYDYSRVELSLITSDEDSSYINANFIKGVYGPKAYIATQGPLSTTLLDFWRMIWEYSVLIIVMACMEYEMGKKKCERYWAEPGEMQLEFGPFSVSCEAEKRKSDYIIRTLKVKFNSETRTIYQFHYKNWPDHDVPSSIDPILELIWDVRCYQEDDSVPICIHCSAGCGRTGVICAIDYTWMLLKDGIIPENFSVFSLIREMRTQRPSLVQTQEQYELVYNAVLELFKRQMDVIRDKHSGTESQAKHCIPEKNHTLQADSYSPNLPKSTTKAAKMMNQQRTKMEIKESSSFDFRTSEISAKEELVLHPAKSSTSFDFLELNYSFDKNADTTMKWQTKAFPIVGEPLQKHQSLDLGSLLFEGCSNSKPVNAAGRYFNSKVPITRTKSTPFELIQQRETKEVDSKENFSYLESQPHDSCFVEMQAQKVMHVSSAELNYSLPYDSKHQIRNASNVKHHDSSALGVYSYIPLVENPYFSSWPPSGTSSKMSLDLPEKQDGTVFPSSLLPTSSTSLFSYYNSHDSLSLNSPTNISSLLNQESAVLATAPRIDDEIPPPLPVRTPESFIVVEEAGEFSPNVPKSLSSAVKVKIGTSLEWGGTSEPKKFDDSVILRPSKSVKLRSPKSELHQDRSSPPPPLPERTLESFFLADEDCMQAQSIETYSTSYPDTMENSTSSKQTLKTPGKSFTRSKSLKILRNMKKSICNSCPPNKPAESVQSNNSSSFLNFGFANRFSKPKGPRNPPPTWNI

[12] = molecular target: T6, Tyrosine-protein phosphatase non-receptor type 22; format: functional; remark: listed apart in the source
[13] = molecular target: DNA dC->dU-editing enzyme APOBEC-3G (Homo sapiens, UniProt Q9HC16); test: Dose Response confirmation of small molecule APOBEC3G DNA Deaminase Inhibitors via a fluorescence-based single-stranded DNA deaminase assay. [Related pubchem assays (depositor defined):AID493012, AID493028]; format: functional
[14] = NIH-3T3 fibroblast cytotoxicity, dose response, cytotoxicity control, cell-based, fluorescence, Alamar Blue, secondary assay (AID 2327); format: functional;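 also: NIH-3T3 mouse fibroblasts cultured with fluconazole at 8 µg/mL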
[15] = system: Streptococcus sp. 'group A'; test: growth inhibition of control SK(-) GAS strain, dose response, counter-screen for streptokinase expression inhibitor project, luminescence, kanamycin, BacTiterGlo, confirmation (AID 1900); format: functional, organism-based
[16] = C. albicans growth with fluconazole, confirmation, fluorescence, retest (AID 2467); format: functional, cell-based
Streptococcus = test: Group A Streptococcus viability loss, dose response, counter-screen for streptokinase expression inhibitor project, luminescence, BacTiterGlo (AID 1915); format: functional, organism-based;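 also: potency for reduction of bacterial viability or growth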
Hexokinase HKDC1 = molecular target: T7, Hexokinase HKDC1 (Homo sapiens, UniProt Q2TB90); test: HKDC1 hexokinase activators, dose response, biochemical, W721R variant (AID 504730); format: functional
T7 sequence (Q2TB90 whole entry): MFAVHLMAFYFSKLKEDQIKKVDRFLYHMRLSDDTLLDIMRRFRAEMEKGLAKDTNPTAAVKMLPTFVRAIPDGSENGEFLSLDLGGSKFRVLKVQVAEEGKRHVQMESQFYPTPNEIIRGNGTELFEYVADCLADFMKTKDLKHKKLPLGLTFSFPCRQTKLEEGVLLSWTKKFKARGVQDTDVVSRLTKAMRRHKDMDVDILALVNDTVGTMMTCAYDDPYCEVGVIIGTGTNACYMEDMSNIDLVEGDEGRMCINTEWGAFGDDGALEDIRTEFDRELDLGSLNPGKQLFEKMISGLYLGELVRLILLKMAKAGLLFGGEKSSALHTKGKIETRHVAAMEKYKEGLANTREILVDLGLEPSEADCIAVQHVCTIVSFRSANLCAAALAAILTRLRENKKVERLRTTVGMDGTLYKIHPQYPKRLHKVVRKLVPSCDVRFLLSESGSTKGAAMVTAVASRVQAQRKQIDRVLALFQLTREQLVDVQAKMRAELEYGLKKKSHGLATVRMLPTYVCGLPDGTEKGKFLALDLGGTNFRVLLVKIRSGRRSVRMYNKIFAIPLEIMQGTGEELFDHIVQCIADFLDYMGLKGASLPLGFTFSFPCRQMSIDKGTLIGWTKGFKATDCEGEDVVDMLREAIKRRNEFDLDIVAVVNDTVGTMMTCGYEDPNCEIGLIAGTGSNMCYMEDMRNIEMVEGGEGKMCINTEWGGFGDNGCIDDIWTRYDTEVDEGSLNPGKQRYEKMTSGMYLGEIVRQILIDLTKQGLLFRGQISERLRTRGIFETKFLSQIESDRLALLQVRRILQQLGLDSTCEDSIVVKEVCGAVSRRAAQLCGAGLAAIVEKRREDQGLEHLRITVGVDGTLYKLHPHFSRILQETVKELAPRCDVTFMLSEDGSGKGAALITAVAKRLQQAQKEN

Hexokinase-1 = Hexokinase-1 (Homo sapiens, UniProt P19367); test: hexokinase 1 activators, dose response, selectivity assay for HKDC1 activator project, biochemical (AID 504762); format: functional
[17] = molecular target: T8, Probable nicotinate-nucleotide adenylyltransferase (Staphylococcus aureus (strain N315), UniProt P65502); format: functional, Staphylococcus aureus subsp. aureus N315;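 as to IC50 Mean: confirmatory dose-response retesting of NadD inhibitor hits first found in an ultra-high-throughput screen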
[18] = molecular target: T8, Probable nicotinate-nucleotide adenylyltransferase; format: functional, Staphylococcus aureus subsp. aureus N315; conditions: read-out: IC50_Mean
[19] = inhibitors of HIV Env-driven cell fusion, dose response, cherry-pick (AID 652057); format: functional, cell-based
[20] = ZM109 Env clade C HIV-1 fusion inhibitors, dose response, HeLa effector, CEM target cells, luciferase, cherry-pick (AID 652058); format: functional, cell-based
[21] = inhibitors of clade B AD8 Env fusion, dose response, cell-based, cherry-pick (AID 652062); format: functional;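 also: luciferase signal from cell-cell fusion driven by HIV-1 clade B AD8 Env; potency is for inhibitors of fusion seen as a drop in luminescence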
[22] = HIV Env cell-cell fusion inhibitors, dose response, HIV entry, plate reader, dry powder (AID 687023); format: functional, cell-based
[23] = CEM21 cell cytotoxicity, dose response, cytotoxicity control, plate reader, dry powder (AID 687026); format: functional, cell-based

T5 sequence (Q00975 whole entry): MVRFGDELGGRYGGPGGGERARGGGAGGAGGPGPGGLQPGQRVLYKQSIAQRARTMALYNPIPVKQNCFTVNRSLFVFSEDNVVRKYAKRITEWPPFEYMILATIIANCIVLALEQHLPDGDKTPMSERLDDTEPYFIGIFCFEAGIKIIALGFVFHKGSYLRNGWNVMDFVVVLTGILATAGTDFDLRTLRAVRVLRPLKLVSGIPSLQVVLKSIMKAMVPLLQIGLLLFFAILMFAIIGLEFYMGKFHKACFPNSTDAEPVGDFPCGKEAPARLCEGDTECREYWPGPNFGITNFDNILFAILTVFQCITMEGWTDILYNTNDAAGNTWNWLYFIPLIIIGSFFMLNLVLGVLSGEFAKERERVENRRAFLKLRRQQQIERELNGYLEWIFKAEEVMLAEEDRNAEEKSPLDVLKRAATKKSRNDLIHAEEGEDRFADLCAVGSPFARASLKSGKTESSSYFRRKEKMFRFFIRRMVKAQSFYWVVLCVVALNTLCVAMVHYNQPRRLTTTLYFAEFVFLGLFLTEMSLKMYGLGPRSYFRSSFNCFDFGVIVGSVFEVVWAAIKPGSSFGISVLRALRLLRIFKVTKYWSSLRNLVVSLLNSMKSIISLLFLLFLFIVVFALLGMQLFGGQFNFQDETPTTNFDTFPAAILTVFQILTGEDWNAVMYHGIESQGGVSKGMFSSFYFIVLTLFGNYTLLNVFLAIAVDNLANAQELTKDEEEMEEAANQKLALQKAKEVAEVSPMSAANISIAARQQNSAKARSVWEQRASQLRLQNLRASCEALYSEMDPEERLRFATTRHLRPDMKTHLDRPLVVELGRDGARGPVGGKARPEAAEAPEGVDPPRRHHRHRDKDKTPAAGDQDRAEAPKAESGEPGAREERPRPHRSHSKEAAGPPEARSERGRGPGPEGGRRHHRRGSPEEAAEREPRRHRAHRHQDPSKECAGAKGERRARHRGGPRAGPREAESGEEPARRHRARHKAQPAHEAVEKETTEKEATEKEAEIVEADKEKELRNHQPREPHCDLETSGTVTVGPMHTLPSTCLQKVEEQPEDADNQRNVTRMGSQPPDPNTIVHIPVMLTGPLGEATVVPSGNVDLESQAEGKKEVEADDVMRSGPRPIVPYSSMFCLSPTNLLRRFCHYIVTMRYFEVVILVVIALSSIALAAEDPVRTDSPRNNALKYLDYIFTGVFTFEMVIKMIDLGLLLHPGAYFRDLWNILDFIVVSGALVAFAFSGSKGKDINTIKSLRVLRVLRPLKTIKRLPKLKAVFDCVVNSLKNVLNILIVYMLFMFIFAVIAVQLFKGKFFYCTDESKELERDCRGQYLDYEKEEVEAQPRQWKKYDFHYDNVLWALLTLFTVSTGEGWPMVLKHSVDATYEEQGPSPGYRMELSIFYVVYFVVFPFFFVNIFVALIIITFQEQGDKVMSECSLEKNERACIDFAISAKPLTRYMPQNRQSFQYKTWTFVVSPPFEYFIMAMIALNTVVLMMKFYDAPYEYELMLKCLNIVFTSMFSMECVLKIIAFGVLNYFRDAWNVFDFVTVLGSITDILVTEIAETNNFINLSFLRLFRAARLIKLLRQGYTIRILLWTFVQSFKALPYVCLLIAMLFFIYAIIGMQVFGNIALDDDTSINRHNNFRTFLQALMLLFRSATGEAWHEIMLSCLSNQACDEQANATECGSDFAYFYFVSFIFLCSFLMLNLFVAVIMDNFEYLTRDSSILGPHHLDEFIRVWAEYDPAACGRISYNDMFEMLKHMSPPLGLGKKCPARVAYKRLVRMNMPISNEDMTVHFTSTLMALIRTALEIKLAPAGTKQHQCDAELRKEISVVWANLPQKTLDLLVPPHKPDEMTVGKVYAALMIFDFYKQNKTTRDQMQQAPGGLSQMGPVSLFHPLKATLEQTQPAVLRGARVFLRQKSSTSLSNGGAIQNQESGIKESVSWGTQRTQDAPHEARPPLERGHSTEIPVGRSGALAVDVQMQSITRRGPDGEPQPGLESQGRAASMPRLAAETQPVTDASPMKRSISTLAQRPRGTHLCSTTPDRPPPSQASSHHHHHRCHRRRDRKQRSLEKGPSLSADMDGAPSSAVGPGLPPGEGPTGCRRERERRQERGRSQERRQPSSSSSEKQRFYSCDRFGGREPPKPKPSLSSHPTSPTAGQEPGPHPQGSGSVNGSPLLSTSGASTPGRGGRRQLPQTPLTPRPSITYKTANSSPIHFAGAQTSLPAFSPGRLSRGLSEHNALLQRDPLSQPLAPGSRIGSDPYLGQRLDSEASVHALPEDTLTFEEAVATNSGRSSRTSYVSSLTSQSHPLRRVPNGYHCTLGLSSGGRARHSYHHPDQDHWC
T5 sequence (Q02410 whole entry): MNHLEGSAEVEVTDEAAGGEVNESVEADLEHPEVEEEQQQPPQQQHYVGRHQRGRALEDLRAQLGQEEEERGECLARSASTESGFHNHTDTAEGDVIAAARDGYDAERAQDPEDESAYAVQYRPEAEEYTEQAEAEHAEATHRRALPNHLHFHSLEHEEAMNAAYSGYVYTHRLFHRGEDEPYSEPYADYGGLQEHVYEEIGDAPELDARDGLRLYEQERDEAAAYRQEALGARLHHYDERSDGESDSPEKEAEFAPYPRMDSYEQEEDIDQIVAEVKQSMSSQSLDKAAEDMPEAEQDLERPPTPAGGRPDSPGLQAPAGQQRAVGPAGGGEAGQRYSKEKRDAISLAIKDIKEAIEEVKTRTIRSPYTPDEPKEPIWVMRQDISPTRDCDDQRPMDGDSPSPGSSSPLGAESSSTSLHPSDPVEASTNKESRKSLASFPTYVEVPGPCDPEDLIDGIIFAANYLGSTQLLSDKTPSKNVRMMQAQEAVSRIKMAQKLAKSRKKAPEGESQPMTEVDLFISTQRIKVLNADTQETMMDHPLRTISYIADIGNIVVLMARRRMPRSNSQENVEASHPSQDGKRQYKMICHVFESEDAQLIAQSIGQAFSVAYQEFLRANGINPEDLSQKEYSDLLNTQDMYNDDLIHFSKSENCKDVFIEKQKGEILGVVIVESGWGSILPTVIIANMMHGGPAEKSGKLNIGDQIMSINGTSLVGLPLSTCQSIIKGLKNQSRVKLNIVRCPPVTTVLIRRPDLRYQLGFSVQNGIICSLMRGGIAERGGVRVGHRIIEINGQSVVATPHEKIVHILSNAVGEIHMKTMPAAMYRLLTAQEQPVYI
T1 sequence (Q9HC97 whole entry): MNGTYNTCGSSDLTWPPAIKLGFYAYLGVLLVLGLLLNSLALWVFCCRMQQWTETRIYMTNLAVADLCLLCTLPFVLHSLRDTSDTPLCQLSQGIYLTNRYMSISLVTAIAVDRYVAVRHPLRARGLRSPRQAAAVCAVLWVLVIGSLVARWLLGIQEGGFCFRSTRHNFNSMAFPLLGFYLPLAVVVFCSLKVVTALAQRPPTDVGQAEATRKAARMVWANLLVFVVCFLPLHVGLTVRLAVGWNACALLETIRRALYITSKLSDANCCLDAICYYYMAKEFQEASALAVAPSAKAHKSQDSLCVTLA
T3 sequence (P34972 whole entry): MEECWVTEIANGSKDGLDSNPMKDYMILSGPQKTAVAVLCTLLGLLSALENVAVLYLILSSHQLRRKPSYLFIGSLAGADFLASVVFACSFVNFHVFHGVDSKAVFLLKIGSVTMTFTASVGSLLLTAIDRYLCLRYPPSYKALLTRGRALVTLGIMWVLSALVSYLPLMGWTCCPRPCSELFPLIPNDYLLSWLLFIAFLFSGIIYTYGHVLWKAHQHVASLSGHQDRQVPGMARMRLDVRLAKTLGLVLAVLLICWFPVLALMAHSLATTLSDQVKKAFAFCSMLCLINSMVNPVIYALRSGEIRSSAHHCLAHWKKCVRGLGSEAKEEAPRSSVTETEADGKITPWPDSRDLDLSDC
T2 sequence (P21554 whole entry): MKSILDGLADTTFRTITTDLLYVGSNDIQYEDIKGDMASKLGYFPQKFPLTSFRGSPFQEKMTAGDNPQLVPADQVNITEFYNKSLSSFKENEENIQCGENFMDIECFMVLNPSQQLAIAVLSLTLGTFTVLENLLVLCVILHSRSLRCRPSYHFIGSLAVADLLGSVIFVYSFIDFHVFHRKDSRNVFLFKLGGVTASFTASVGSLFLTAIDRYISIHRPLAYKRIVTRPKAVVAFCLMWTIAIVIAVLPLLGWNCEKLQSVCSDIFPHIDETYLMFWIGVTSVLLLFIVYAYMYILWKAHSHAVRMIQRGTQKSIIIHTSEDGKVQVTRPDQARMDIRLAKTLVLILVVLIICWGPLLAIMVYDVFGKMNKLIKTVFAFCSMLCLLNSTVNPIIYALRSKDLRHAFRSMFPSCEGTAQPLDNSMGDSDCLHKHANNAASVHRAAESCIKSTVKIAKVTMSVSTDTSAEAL
Chain of G-protein coupled receptor 55 (Q9Y2T6 whole entry): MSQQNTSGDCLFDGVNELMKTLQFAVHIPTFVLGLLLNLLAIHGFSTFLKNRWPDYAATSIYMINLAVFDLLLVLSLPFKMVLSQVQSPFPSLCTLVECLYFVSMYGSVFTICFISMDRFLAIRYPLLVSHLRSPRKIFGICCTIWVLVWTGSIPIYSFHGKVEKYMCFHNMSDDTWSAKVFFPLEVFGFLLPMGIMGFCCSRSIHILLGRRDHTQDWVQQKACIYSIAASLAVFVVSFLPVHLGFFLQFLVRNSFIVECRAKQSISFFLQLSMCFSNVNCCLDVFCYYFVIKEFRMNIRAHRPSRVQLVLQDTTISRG
Chain of DNA dC->dU-editing enzyme APOBEC-3G (Q9HC16 whole entry): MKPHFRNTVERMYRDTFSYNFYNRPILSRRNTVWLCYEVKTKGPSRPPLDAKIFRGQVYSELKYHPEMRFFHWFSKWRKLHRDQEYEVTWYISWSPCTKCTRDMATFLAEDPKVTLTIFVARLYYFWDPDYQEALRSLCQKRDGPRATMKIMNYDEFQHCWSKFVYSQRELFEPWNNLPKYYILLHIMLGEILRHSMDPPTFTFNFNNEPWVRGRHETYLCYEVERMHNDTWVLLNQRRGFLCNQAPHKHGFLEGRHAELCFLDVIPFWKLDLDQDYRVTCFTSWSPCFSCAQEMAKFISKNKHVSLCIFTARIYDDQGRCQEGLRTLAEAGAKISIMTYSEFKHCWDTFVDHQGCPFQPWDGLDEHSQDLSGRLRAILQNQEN

EC50 [1]: > 32 µM (inactive)
EC50 (Cannabinoid receptor 1 [2]): > 32 µM (inactive)
IC50 [3]: > 32 µM (inactive)
IC50 (Cannabinoid receptor 1 [4]): 4.92 µM (active)
IC50 [5]: 13.7 µM (inactive)
IC50 (Cannabinoid receptor 2 [6]): > 32 µM (inactive)
EC50 (Cannabinoid receptor 2 [7]): > 32 µM (inactive)
Structure (SMILES): Cc1cc(C)nc(NS(=O)(=O)c2ccc(NC(=O)c3cc(-c4ccccc4)nc4ccccc34)cc2)n1

Structure (SMILES): COc1ccc(NC(=O)CN2C(=O)/C(=C3\SC(=S)N(CCC(=O)O)C3=O)c3ccccc32)cc1
IC50 [8]: 6.84 µM (active)
IC50 [9]: 14.5 µM (active)
IC50 [10]: > 50 µM (inactive)
IC50 [11]: 6.11 µM (active)
IC50 [12]: 13.8 µM (active)
IC50 [13]: 40.9 µM (active)

Structure (SMILES): COc1ccc(-c2cc(C(=O)NNC(=S)NC(=O)c3c(-c4ccccc4)noc3C)[nH]n2)cc1
EC50 [14]: 53.9 µM (active)
EC50 [15]: 263 nM (active)
EC50 [16]: > 38 µM (not active)
EC50 (Streptococcus): 4.58 µM (active)
EC50 (Hexokinase HKDC1): 3.62 µM (active)
EC50 (Hexokinase-1): > 80 µM (inactive)
IC50 [17]: 6.51 µM (active)
IC50 [18]: 26.1 µM (active)
AC50 [19]: 12 µM (active)
AC50 [20]: 2.61 µM (active)
AC50 [21]: 4.51 µM (active)
AC50 [22]: 2.1 µM (active)
AC50 [23]: > 70 µM (inactive)
